Measured values taken from patent US8569324B2, “Potentiator for radiation therapy comprising pyridine derivative as active ingredient” (Taiho Pharmaceutical Co., Ltd., priority 2005, dated 2013).
Values joined by “and” are separate entries in the source; they are usually repeats but may differ in a detail not shown here. Equal entries are not always repeated.

Assays:
normal skin = experiment: Test Example 3: effect of irradiation on disorders of normal tissues (normal skin), severity by method of Douglas et al.; type: in vivo, BALB/cA-nu mice; details: CDHP 50 mg/kg/day oral 7 days + 20 Gy X-ray on days 1 and 3; 6 animals; radiation alone: grades 1.5 or higher in all 6 after day 14
Description: (a) Preparation of test solution: CDHP was suspended in a 0.5% (W/V) HPMC solution at a concentration of 5.0 mg/mL, and the suspension was stirred with a stirrer at room temperature for about 10 minutes and ultrasonicated with ice cooling for about 5 minutes to obtain a drug solution of 50 mg/kg/day as CDHP. (b) Method for X-ray irradiation: Local irradiation was performed on the right femoral region of the mouse using MBR-1505R Type 2 X-ray Irradiation System of Hitachi Medical Corporation under an irradiation condition (irradiation position) so that exposure per mouse should be 20 Gy. To prevent systemic irradiation, mice were placed in a storage box made of lead so that only their right leg should be exposed to radiation. (c) Test: Six to 8-week-old BALB/cA-nu mice were divided into the control group, the radiation alone group, and the drug plus radiation group, each consisting of 6 animals, and drug administration and X-ray irradiation were initiated. […] (d) Determination of severity of skin disorders: From 7 days after the end of the test, severity of skin disorders in the femoral region caused by irradiation was determined by the method of Douglas, et al. (Douglas B G, et al.: The effect of multiple small doses of X-rays on skin reactions in the mice and a basic interpretation. Radiation Res., 66: 401-426, 1976.).

[1] = system: human lung cancer strain (LC-11); experiment: Test Example 1: radiotherapy enhancing effect of CDHP on human lung cancer strain LC-11 transplanted into nude mice; type: in vivo, BALB/cA-nu mouse
Description: (a) Preparation of test solution: 5-Chloro-2,4-dihydroxypyridine (CDHP) was suspended in a 0.5% (W/V) hydroxypropylmethylcellulose (HPMC) solution at concentrations of 0.25 and 2.5 mg/mL, and the suspension was stirred with a stirrer at room temperature for about 10 minutes and ultrasonicated for about 5 minutes with ice cooling to obtain a drug solution of 2.5 or 25 mg/kg/day as CDHP. (b) Method for Radiation (X-ray) irradiation: Local irradiation was performed on a human tumor strain transplanted into the right femoral region of the mouse using MBR-1505R Type 2 X-ray Irradiation System of Hitachi Medical Corporation under an irradiation condition (irradiation position) so that exposure per mouse should be 2 Gy or 5 Gy. To prevent systemic irradiation, mice were placed in a storage box made of lead so that only their right leg should be exposed to radiation. (c) Test: The human lung cancer strain (LC-11) subcutaneously transplanted into the back of a BALB/cA-nu mouse and grown beforehand were removed, cut into small fragments of about 2×2 mm^2 with scissors in physiological saline, and subcutaneously transplanted into the right femoral region of 5 to 6-week-old mice of the same strain with a transplantation needle. The mice were bred for at least 1 to 2 weeks and divided into the control group, the radiation alone group, the drug alone group, and the drug plus radiation group, so that the tumor volume and standard deviation (S.D.) in each group (n=6 per group) should be as uniform as possible. Then, drug administration and X-ray irradiation were initiated. The drug treatment group was orally administered with 0.1 mL each of the above-described CDHP drug solution per body weight 10 g once daily for 14 consecutive days using a sonde for oral administration. The radiation group was irradiated with 2 Gy or 5 Gy of X-ray within about 1 hour after administration of the CDHP drug solution in the above-described manner on day 1, at the start of the test, and on day 8. Tumor-bearing mice in the control group (non-radiation/non-drug treatment group) and the radiation alone group were orally administered with 0.5% HPMC solution alone in the same manner for 14 consecutive days.
By using the following numerical formula 1, the tumor volume of each mouse in each group was obtained prior to the start of treatment experiment, on days 3, 5, 8 (1 week later) and 11 during the treatment period, and days 15 (2 weeks later), 18, 22 (3 weeks later), 25, and 29 (4 weeks later) after completion of the treatment. A relative tumor volume (RTV) to the tumor volume at the start of the test was obtained for each mouse. […] The mean tumor growth inhibition rate (IR; %) in each treatment group based on the control group was obtained by using the following numerical formula 2 on days 15, at the end of the treatment period, and 29 at 4 weeks later and shown in Table 1.

Structure (SMILES): Oc1cc(O)c(Cl)cn1 [CDHP, 5-chloro-2,4-dihydroxypyridine]
- severity of skin disorders in the femoral region caused by irradiation (normal skin): mild disorders (redness, swelling) were observed only in 1 or 2 mice
- Tumor growth inhibition rate IR(%) Day 15 ([1]; CDHP 2.5 mg/kg oral once daily 14 days + X-ray 2 Gy on days 1 and 8, Day 15): 41%
- Tumor growth inhibition rate IR(%) Day 29 ([1]; CDHP 2.5 mg/kg oral once daily 14 days + X-ray 2 Gy on days 1 and 8, Day 29): 25% and 24.7* %
- Tumor growth inhibition rate IR(%) Day 15 ([1]; CDHP 2.5 mg/kg oral once daily 14 days, X-ray 0 Gy, Day 15): 17.2%
- Tumor growth inhibition rate IR(%) Day 29 ([1]; CDHP 2.5 mg/kg oral once daily 14 days, X-ray 0 Gy, Day 29): −7.9%
- Tumor growth inhibition rate IR(%) Day 15 ([1]; CDHP 25 mg/kg oral once daily 14 days + X-ray 2 Gy on days 1 and 8, Day 15): 57% and 57.2%
- Tumor growth inhibition rate IR(%) Day 29 ([1]; CDHP 25 mg/kg oral once daily 14 days + X-ray 2 Gy on days 1 and 8, Day 29): 46% and 46.3** %
- Tumor growth inhibition rate IR(%) Day 15 ([1]; CDHP 25 mg/kg oral once daily 14 days, X-ray 0 Gy, Day 15): 9.7%
- Tumor growth inhibition rate IR(%) Day 29 ([1]; CDHP 25 mg/kg oral once daily 14 days, X-ray 0 Gy, Day 29): −15.3%
- enhancement of the effect of X-ray ([1]; CDHP 2.5 and 25 mg/kg with 2-Gy X-ray irradiation in combination): significantly enhanced the effect of X-ray
- antitumor effect of drug alone ([1]; CDHP alone, both doses 2.5 and 25 mg/kg): hardly showed any antitumor effect
- serious adverse drug reactions (body weight loss, skin disorders) ([1]; mice receiving CDHP and X-ray in combination): no serious adverse drug reactions such as body weight loss and skin disorders were observed
